The values that follow come from article PMC7738880, “Identification of novel CD44v6-binding peptides that block CD44v6 and deliver a pro-apoptotic peptide to tumors to inhibit tumor growth and metastasis in mice” (Theranostics, 2021).

One data set deals with 4T1 cells. Description: Transwell cell migration and invasion assays, 4T1. It counts as cell-based, mouse. Particulars: HGF 25 ng/mL, 24 h. As to the method:
Transwell chambers (24-wells) with 8 μm pores were obtained from Corning (Corning, NY). MDA-MB231 and 4T1 cells (1 × 10^6 cells) were harvested, resuspended in 200 μL of DMEM containing CD44v6-binding peptides (20 µM), and then seeded into the upper chamber of the transwell chambers. The lower chamber was filled with 600 μL of DMEM containing 25 ng/mL HGF. After 24 h of incubation, cells that migrated into the reverse side of the transwell membrane were fixed with methanol, stained with crystal violet, and then counted under a light microscope. An average of five visual fields was obtained. For invasion assays, the transwell membrane was pre-coated with 300 µg/mL of Matrigel (Corning). […]
phosphorylation in 4T1 cells. (C-D) Transwell migration (C) and invasion (D) assays of 4T1 cells pre-treated or not with 5 μg/mL NLN and NEW for 10 min and subsequently treated with 25 ng/mL HGF for 10 min, followed by incubation for 24 h. Scale bars = 20 μm. Graphs (right panels) represent the quantification of the cell numbers in ten randomly selected fields. Data are shown as the means ± S.E. of three independent experiment. **, P < 0.01; ***, P < 0.001; n.s, not significant compared with HGF by one-way ANOVA.

Data set [1] concerns MDA-MB231 subcutaneous tumors. Nature of the data set: In vivo whole-body and ex vivo fluorescence imaging of tumor homing. Particulars: Flamma 675 NIR dye-labeled peptide 1 mg/kg i.v.; for ex vivo accumulation in tumors versus organs: 6 h post-injection, n = 3/group; for in vivo fluorescence signals at tumor areas: imaging 1-6 h. Also on record: species or system BALB/c nude mouse. The procedure:
Mice for animal experiments were purchased from Orient Bio Inc. (Seongnam, Korea) and maintained in conformance with the Guidelines of the Institutional Animal Care and Use Committee of Kyungpook National University (permission no. 2014-1-121). A total of 1 × 10^6 MDA-MB231 cells were subcutaneously injected into the right flank of each 6-week-old female BALB/c nude mouse. When the tumor reached a volume of approximately 100 mm^3, the mouse was injected intravenously with Flamma 675 NIR fluorescence dye-labeled peptides (1 mg/kg body weight). Whole-body fluorescence imaging was performed under inhalational anesthesia using an IVIS imaging system (Perkin Elmer). After in vivo imaging, each mouse was euthanized, the tumor and control organs (liver, kidney, spleen, heart, and lung) were isolated, and ex vivo images were obtained using the IVIS imaging system.

The subject of a further data set is MDA-MB231-luc cells. Nature of the data set: MDA-MB231-luc experimental lung metastasis model. In kind it is in vivo. Particulars: for number of tumor nodules in the lungs, peptide in combination with crizotinib versus single treatment / survival rate, peptide in combination with crizotinib versus single treatment: peptide 14.2 mg/kg i.v. plus crizotinib 25 mg/kg oral; for numbers of metastatic tumor nodules in the lungs / weights of the isolated lungs: peptide 14.2 mg/kg i.v. thrice weekly for 3 weeks; for luminescence signals and total photon flux in the whole body: peptide 14.2 mg/kg i.v. thrice weekly for 3 weeks from 1 h after tumor cell injection; for survival rate: peptide 14.2 mg/kg i.v. thrice weekly or crizotinib 25 mg/kg oral twice weekly, 3 weeks, single treatment; for liver and kidney functional marker levels (BUN, CRE, AST, ALT): peptide alone or in combination with crizotinib, serum, n = 5/group. The procedure: A mouse model of lung metastasis of breast cancer was prepared by injecting 1 × 10^6 MDA-MB231-luc cells into 6-week-old female BALB/c nude mice via tail vein. To monitor the localization of the tumor cells in the lungs, the mice were injected intraperitoneally with D-luciferin at a dose of 150 mg/kg body weight and subjected to a whole-body bioluminescence imaging using IVIS imaging system (Perkin Elmer) after a 10-min resting period. Mice (n = 10 per group) were randomly assigned to groups based on the luminescence intensity. At 1 h after tumor cell injection, tumor-bearing mice received intravenous injections of CD44v6-binding peptides through the tail vein (14.2 mg/kg body weight, thrice weekly for 3 weeks) alone or in combination with orally administered crizotinib in 5% dimethyl sulfoxide (DMSO) (25 mg/kg of body weight, twice weekly for 3 weeks) as previously described, [29]. Metastatic tumor growth after treatments was monitored by measuring the total photon flux (number of photons/second) in the whole body using the IVIS imaging system. The body weights of mice and tumor ulceration were monitored throughout the treatment period. At the end of the treatment period, half of the mice (n = 5 per group) were used for the collection of blood, sacrificed, the lungs were harvested and weighed, and the numbers of metastatic tumor nodules in the lungs were counted. The remaining mice (n = 5 per group) were maintained until death to determine the survival rates. For the analysis of hematological parameters, 1 mL of blood was collected from each mouse and separated into 500 µL aliquots used to prepare serum and plasma. Serum was obtained by centrifuging clotted blood at 4 °C twice, followed by filtration (pore size: 0.22 µm). Plasma was obtained by centrifuging ethylenediaminetetraacetic acid-treated samples. Hematological parameters and liver and kidney function markers were measured by DGMIF (Daegu, Korea).

In data set [2] the target is T1, recombinant human CD44v6-Fc protein (Homo sapiens, UniProt P16070).
T1 sequence (P16070 386-428 limits assumed): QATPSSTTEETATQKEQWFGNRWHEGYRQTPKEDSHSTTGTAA
Description: SPR analysis of peptide binding affinity to CD44v6-Fc. Particulars: biotin-conjugated peptide on streptavidin chip, CD44v6-Fc 0.125-2 µM, steady-state 1:1 fit, pH 7.4. The procedure:
The binding affinity (KD) of CD44v6-binding peptides to the CD44v6 protein was measured using an SPR instrument (Reichert Technologies, Depew, NY). A streptavidin chip was used as the immobilization substrate and exposed to biotin-labeled peptides (25 μΜ) at 5 μL/min for 50 min. The streptavidin only surface was used for the reference surface. All SPR signals were corrected by subtraction with the response of the reference surface. After washing, the chip was flowed with a solution of CD44v6-Fc or CD44-Fc protein (R&D Systems, Minneapolis, MN) in binding buffer (137 mM NaCl, 10 mM phosphate, 2.7 mM KCl pH 7.4, 62.5 µM BSA, and 0.005% Tween-20) at concentrations of 0.125, 0.25, 0.5, 1, and 2 μM at 10 μL/min for 3 min. Five concentrations (0.125, 0.25, 0.5, 1, and 2 µM) of CD44v6-Fc and CD44-Fc were used in a single-cycle dynamic SPR measurements. Resonance units were recorded and analyzed using Scrubber 2.0 software (BioLogic Software, Campbell, Australia). KD values were calculated by analyzing the steady-state binding data by fitting the curve of binding level against concentration with a 1:1 binding model (GraphPad Prism 7.0 software).

Residues, ends and D or L forms follow the SMILES beside them.

Take `CC(C)C[C@H](NC(=O)[C@H](CCC(N)=O)NC(=O)[C@H](Cc1c[nH]c2ccccc12)NC(=O)[C@H](CCC(=O)O)NC(=O)[C@H](CC(N)=O)NC(=O)[C@@H](N)CS)C(=O)N[C@@H](CCCCN)C(=O)N[C@@H](CO)C(=O)N[C@@H](CS)C(=O)O` [NEW] (H-CNEWQLKSC-OH; N-terminus and C-terminus assumed): the “HGF-induced cell migration and invasion, 4T1” value with 4T1 cells is listed as “inhibited”. Further, in data set [1], the “ex vivo accumulation in tumors versus organs” value is “higher levels of NLN and NEW accumulation in tumors than in control organs”; the “in vivo fluorescence signals at tumor areas” value is “higher than those associated with the control peptide until 4 h”. Further, in the data set with MDA-MB231-luc cells, the “number of tumor nodules in the lungs, peptide in combination with crizotinib versus single treatment” value is reported as “more efficiently reduced”; the “survival rate, peptide in combination with crizotinib versus single treatment” value is “increased the survival rate”; the “numbers of metastatic tumor nodules in the lungs” value was “reduced”; the “weights of the isolated lungs” value is “reduced”. Further, in the data set on MDA-MB231-luc cells, the “luminescence signals and total photon flux in the whole body” value is given as “decreased”; the survival rate entry is “increased”; the “liver and kidney functional marker levels (BUN, CRE, AST, ALT)” value is recorded as “within or close to the normal ranges”. Moreover, the dissociation constant Kd in data set [2] came to 85 ± 18 nM.
With `CC[C@H](C)[C@H](NC(=O)[C@@H](NC(=O)[C@H](CC(N)=O)NC(=O)[C@H](CC(C)C)NC(=O)[C@H](CC(N)=O)NC(=O)[C@@H](N)CS)[C@@H](C)O)C(=O)N[C@@H](CC(=O)O)C(=O)N[C@H](C(=O)N[C@@H](CS)C(=O)O)[C@@H](C)O` [NLN] (H-CNLNTIDTC-OH; N-terminus and C-terminus assumed), in the data set with 4T1 cells, the “HGF-induced cell migration and invasion, 4T1” value is “inhibited”. Further, in data set [1], the “ex vivo accumulation in tumors versus organs” value was “higher levels of NLN and NEW accumulation in tumors than in control organs”; the “in vivo fluorescence signals at tumor areas” value is reported as “higher than those associated with the control peptide until 4 h”. Besides, the “serum alanine transferase levels” value in the data set on MDA-MB231-luc cells (above the normal ranges, 14.2 mg/kg i.v. thrice weekly for 3 weeks) is recorded as “significantly increased”. Also, in the data set with MDA-MB231-luc cells, the “number of tumor nodules in the lungs, peptide in combination with crizotinib versus single treatment” value was “more efficiently reduced”; the “survival rate, peptide in combination with crizotinib versus single treatment” value was “increased the survival rate”; the “numbers of metastatic tumor nodules in the lungs” value is “reduced”; the “weights of the isolated lungs” value is given as “reduced”. Also, in the data set on MDA-MB231-luc cells, the “luminescence signals and total photon flux in the whole body” value is “decreased”; the survival rate result is recorded as “increased”; the “liver and kidney functional marker levels (BUN, CRE, AST, ALT)” value was “within or close to the normal ranges”. In data set [2], the Kd was found to be 253 ± 79 nM.
